# Source: US20250064941A1, “SIGLEC LIGANDS, CONJUGATES, AND METHODS OF USE THEREOF” (Osprey Biopharmaceuticals, Inc., priority 2023, published 2025)
# Legend:
# [1] = biological target: T1, human Siglec-2/CD22 protein (Homo sapiens, UniProt P20273); assay: SPR binding affinity to human CD22; conditions: steady-state analysis
# T1 construct: purchased Acro Biosystems SI2-H82E3
# T1 sequence (P20273 20-847): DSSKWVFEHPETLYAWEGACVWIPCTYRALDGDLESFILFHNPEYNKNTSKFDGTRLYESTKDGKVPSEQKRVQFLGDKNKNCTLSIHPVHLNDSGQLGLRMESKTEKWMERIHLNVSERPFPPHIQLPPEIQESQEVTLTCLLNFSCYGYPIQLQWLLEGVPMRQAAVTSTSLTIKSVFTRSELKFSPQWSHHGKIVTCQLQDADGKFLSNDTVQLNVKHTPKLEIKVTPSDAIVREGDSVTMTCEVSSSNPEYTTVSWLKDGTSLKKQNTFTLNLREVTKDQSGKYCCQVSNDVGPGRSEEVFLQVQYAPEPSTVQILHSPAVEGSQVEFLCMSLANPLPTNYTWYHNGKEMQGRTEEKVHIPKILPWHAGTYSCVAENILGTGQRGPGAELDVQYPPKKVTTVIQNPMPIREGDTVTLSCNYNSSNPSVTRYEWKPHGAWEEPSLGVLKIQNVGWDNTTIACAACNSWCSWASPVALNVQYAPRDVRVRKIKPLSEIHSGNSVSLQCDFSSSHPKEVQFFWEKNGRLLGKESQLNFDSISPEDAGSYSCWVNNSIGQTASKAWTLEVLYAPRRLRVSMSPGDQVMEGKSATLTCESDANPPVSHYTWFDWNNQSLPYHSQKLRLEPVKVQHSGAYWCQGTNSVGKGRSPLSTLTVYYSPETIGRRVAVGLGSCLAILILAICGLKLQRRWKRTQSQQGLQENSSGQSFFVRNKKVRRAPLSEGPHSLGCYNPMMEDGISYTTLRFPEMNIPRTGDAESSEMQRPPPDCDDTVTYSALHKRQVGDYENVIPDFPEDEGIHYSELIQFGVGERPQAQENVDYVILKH
# Method in brief: (§1)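 Steady-state fits gave the affinities. Before capture on a streptavidin surface, biotinylated CD22 had native sialic acids stripped (SialoExo, 4 hours, 37° C.). Running buffer: 10 mM HEPES pH 7.5, 150 mM NaCl, 0.05% Tween-20, 1% DMSO, with DMSO solvent correction.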
# [2] = biological target: T2, mouse Siglec-2-Fc-Avi (CD22) (Mus musculus, UniProt P35329); assay: SPR binding affinity to mouse CD22; conditions: steady-state analysis
# T2 construct: made in house
# T2 sequence (P35329 22-708 limits assumed): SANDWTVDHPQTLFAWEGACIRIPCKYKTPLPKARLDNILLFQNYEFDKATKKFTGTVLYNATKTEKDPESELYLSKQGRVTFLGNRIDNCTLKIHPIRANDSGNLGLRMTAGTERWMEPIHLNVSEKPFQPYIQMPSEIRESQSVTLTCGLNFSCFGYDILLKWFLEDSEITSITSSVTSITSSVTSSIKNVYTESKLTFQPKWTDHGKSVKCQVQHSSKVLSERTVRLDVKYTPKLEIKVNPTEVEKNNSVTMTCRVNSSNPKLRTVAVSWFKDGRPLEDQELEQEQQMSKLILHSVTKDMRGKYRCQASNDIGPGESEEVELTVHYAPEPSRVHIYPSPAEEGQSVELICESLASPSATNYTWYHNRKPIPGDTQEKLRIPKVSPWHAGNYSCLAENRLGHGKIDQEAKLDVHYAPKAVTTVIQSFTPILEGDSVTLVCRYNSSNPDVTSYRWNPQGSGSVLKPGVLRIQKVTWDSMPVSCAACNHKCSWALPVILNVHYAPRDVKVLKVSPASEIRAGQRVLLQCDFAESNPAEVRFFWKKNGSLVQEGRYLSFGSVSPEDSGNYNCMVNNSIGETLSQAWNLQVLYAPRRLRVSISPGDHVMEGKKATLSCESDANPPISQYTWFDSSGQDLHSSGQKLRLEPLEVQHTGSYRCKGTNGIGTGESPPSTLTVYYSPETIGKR
# Method in brief: as §1
# cynomolgus Siglec-2/CD22 = cynomolgus Siglec-2/CD22 (Macaca fascicularis, UniProt A0A2K5WCZ6); assay: biochemical; assay type: binding; conditions: SPR, steady-state analysis; read-out: Affinity cyno CD22
# Chain of cynomolgus Siglec-2/CD22 (A0A2K5WCZ6 entry or part of it): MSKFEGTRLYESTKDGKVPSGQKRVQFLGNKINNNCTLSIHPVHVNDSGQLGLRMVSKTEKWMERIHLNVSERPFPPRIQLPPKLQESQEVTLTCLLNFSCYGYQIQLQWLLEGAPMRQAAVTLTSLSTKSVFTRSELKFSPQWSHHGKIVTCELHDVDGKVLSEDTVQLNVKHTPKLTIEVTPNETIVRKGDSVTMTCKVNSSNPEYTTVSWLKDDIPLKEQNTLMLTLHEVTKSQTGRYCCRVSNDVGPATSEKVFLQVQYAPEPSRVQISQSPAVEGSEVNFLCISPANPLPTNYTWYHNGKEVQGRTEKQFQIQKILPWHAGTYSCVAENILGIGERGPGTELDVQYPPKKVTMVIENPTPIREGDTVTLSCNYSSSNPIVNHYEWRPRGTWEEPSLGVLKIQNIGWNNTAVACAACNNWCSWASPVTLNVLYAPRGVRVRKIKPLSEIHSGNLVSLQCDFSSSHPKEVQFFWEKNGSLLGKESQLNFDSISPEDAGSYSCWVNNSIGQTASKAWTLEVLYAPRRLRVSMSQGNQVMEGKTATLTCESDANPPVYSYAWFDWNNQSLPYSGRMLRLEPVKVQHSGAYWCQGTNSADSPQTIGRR
# Method in brief: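 SPR with desialylated (SialoExo, 4 h, 37° C.) cynomolgus CD22 amine-coupled to a CM5 chip. Running buffer 10 mM HEPES, 150 mM NaCl, 0.05% Tween-20, pH 7.5, 1% DMSO, with solvent correction; 120 s dissociation. Affinities from steady-state analysis.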
SMILES,Kd [1] [µM],Kd [2] [µM],Kd (cynomolgus Siglec-2/CD22) [µM]
"C#CCCCCCCO[C@]1(C(=O)O)C[C@H](O)[C@@H](NC(=O)CO)[C@H]([C@H](O)[C@H](O)CNC(=O)C(F)(F)c2ccccc2)O1 [Compound 42, (2R,4S,5R,6R)-6-((1R,2R)-3-(2,2-difluoro-2-phenylacetamido)-1,2-dihydroxypropyl)-4-hydroxy-5-(2-hydroxyacetamido)-2-(oct-7-yn-1-yloxy) tetrahydro-2H-pyran-2-carboxylic acid]",< 1,1 to 10,< 1
"C#CCCOc1ccc(CO[C@]2(C(=O)O)C[C@H](O)[C@@H](NC(=O)CO)[C@H]([C@H](O)[C@H](O)CNC(=O)Cc3cccc(-c4cccc(O)c4)c3)O2)cc1 [Compound 45, (2R,4S,5R,6R)-2-((4-(but-3-yn-1-yloxy)benzyl)oxy)-6-((1R,2R)-1,2-dihydroxy-3-(2-(3′-hydroxy-[1,1′-biphenyl]-3-yl)acetamido)propyl)-4-hydroxy-5-(2-hydroxyacetamido)tetrahydro-2H-pyran-2-carboxylic acid]",< 1,1 to 10,1 to 10
"C#CCCOc1ccc(CS[C@]2(C(=O)O)C[C@H](O)[C@@H](NC(=O)CO)[C@H]([C@H](O)[C@H](O)CNC(=O)Cc3cccc(Cl)c3)O2)cc1 [Compound 120, (2S,4S,5R,6R)-2-((4-(but-3-yn-1-yloxy)benzyl)thio)-6-((1R,2R)-3-(2-(3-chlorophenyl)acetamido)-1,2-dihydroxypropyl)-4-hydroxy-5-(2-hydroxyacetamido)tetrahydro-2H-pyran-2-carboxylic acid]",< 1,1 to 10,< 1
"C#CCN(CC(=O)O)C(=O)CCCCCO[C@]1(C(=O)O)C[C@H](O)[C@@H](NC(=O)CO)[C@H]([C@H](O)[C@H](O)CNC(=O)Cc2ccc(Cl)cc2)O1 [Compound 100, (2R,4S,5R,6R)-2-((6-((carboxymethyl)(prop-2-yn-1-yl)amino)-6-oxohexyl)oxy)-6-((1R,2R)-3-(2-(4-chlorophenyl)acetamido)-1,2-dihydroxypropyl)-4-hydroxy-5-(2-hydroxyacetamido)tetrahydro-2H-pyran-2-carboxylic acid]",< 1,< 1,< 1
"C#CCOCCCCCCO[C@]1(C(=O)O)C[C@H](O)[C@@H](NC(=O)CO)[C@H]([C@H](O)[C@H](O)CNC(=O)Cc2ccc(C(F)F)cc2)O1 [Compound 157, (2R,4S,5R,6R)-6-((1R,2R)-3-(2-(4-(difluoromethyl)phenyl)acetamido)-1,2-dihydroxypropyl)-4-hydroxy-5-(2-hydroxyacetamido)-2-((6-(prop-2-yn-1-yloxy)hexyl)oxy)tetrahydro-2H-pyran-2-carboxylic acid]",< 1,< 1,< 1
"C#CCOCCOCCO[C@]1(C(=O)O)C[C@H](O)[C@@H](NC(=O)CO)[C@H]([C@H](O)[C@H](O)CNC(=O)CCCCCCCCCCCCCCC)O1 [Compound 13, (2R,4S,5R,6R)-6-((1R,2R)-1,2-dihydroxy-3-palmitamidopropyl)-4-hydroxy-5-(2-hydroxyacetamido)-2-(2-(2-(prop-2-yn-1-yloxy)ethoxy)ethoxy)tetrahydro-2H-pyran-2-carboxylic acid]",> 10,> 10,> 10
"C#CCOc1ccc(CO[C@]2(C(=O)O)C[C@H](O)[C@@H](NC(=O)CO)[C@H]([C@H](O)[C@H](O)CNC(=O)Cc3ccccc3O)O2)cc1 [Compound 145, (2R,4S,5R,6R)-6-((1R,2R)-1,2-dihydroxy-3-(2-(2-hydroxyphenyl)acetamido)propyl)-4-hydroxy-5-(2-hydroxyacetamido)-2-((4-(prop-2-yn-1-yloxy)benzyl)oxy)tetrahydro-2H-pyran-2-carboxylic acid]",1 to 10,1 to 10,1 to 10

# Next, values leading:
Kd [1] [µM],Kd [2] [µM],Kd (cynomolgus Siglec-2/CD22) [µM],SMILES
< 1,1 to 10,1 to 10,"C#CCOc1ccc(-c2cn([C@]3(C(=O)O)C[C@H](O)[C@@H](NC(=O)CO)[C@H]([C@H](O)[C@H](O)CNC(=O)Cc4ccc(-c5ccc(O)cc5)cc4)O3)nn2)cc1 [Compound 53, (2R,4S,5R,6R)-6-((1R,2R)-1,2-dihydroxy-3-(2-(4′-hydroxy-[1,1′-biphenyl]-4-yl)acetamido)propyl)-4-hydroxy-5-(2-hydroxyacetamido)-2-(4-(4-(prop-2-yn-1-yloxy)phenyl)-1H-1,2,3-triazol-1-yl)tetrahydro-2H-pyran-2-carboxylic acid]"
1 to 10,1 to 10,< 1,"C#CCOCCCCCCO[C@]1(C(=O)O)C[C@H](O)[C@@H](NC(=O)C(C)O)[C@H]([C@H](O)[C@H](O)CNC(=O)Cc2ccc(Cl)cc2)O1 (stereo partly drawn) [Compound 183, (2R,4S,5R,6R)-6-((1R,2R)-3-(2-(4-chlorophenyl)acetamido)-1,2-dihydroxypropyl)-4-hydroxy-5-(2-hydroxypropanamido)-2-((6-(prop-2-yn-1-yloxy)hexyl)oxy)tetrahydro-2H-pyran-2-carboxylic acid]"
> 10,> 10,> 10,"C#CCOCCOCCO[C@]1(C(=O)O)C[C@H](O)[C@@H](NC(=O)CO)[C@H]([C@H](O)[C@H](O)CNC(=O)Cc2ccc(-c3cc[nH]c(=O)c3)cc2)O1 [Compound 75, (2R,4S,5R,6R)-6-((1R,2R)-1,2-dihydroxy-3-(2-(4-(2-oxo-1,2-dihydropyridin-4-yl)phenyl)acetamido)propyl)-4-hydroxy-5-(2-hydroxyacetamido)-2-(2-(2-(prop-2-yn-1-yloxy)ethoxy)ethoxy)tetrahydro-2H-pyran-2-carboxylic acid]"
< 1,< 1,< 1,"C#CCOCCCCCCO[C@]1(C(=O)O)C[C@H](O)[C@@H](NC(=O)CO)[C@H]([C@H](O)[C@H](O)CNC(=O)Cc2ccc(-c3ccc(O)cc3)cc2)O1 [Compound 63, (2R,4S,5R,6R)-6-((1R,2R)-1,2-dihydroxy-3-(2-(4′-hydroxy-[1,1′-biphenyl]-4-yl)acetamido)propyl)-4-hydroxy-5-(2-hydroxyacetamido)-2-((6-(prop-2-yn-1-yloxy)hexyl)oxy)tetrahydro-2H-pyran-2-carboxylic acid]"
< 1,1 to 10,< 1,"C#CCOCCCCCCO[C@]1(C(=O)O)C[C@H](O)[C@@H](NC(=O)CO)[C@H]([C@H](O)[C@H](O)CNC(=O)Cc2cccc(OC(F)(F)F)c2)O1 [Compound 155, (2R,4S,5R,6R)-6-((1R,2R)-1,2-dihydroxy-3-(2-(3-(trifluoromethoxy)phenyl)acetamido)propyl)-4-hydroxy-5-(2-hydroxyacetamido)-2-((6-(prop-2-yn-1-yloxy)hexyl)oxy)tetrahydro-2H-pyran-2-carboxylic acid]"
< 1,< 1,< 1,"CC(=O)NCCOCCOCCOCCOCc1cn(CCCCCCCCO[C@]2(C(=O)O)C[C@H](O)[C@@H](NC(=O)CO)[C@H]([C@H](O)[C@H](O)CNC(=O)Cc3ccc(C(F)F)cc3)O2)nn1 [Compound 259, (2R,4S,5R,6R)-6-((1R,2R)-3-(2-(4-(difluoromethyl)phenyl)acetamido)-1,2-dihydroxypropyl)-4-hydroxy-5-(2-hydroxyacetamido)-2-((8-(4-(15-oxo-2,5,8,11-tetraoxa-14-azahexadecyl)-1H-1,2,3-triazol-1-yl)octyl)oxy)tetrahydro-2H-pyran-2-carboxylic acid]"
